ChEMBL document CHEMBL1201862, “PubChem BioAssay data set” (2004)
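Cultured in 96-well plates, cells were exposed to test compound for 48 hours across five concentrations. GI50 marks 50% less growth.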 Active and inactive are the calls of the source. Rule as the data show it: active = GI50 up to about 1.1 µM and inactive = higher.

Tests used:
Assay in all cases: NCI-60 cell line screen, 48 h
OVCAR-8 = test system: OVCAR-8
NCI-H226 = test system: NCI-H226
T47D = test system: T47D
UO-31 = test system: UO-31
SK-MEL-2 = test system: SK-MEL-2
NCI/ADR-RES = test system: NCI/ADR-RES
LOX IMVI = test system: LOX IMVI
KM12 = test system: KM12
A549 = test system: A549
SK-MEL-28 = test system: SK-MEL-28
UACC-62 = test system: UACC-62
COLO 205 = test system: COLO 205
SNB-19 = test system: SNB-19
M14 = test system: M14
SF-268 = test system: SF-268
MDA-MB-231 = test system: MDA-MB-231
SF-539 = test system: SF-539
HCC 2998 = test system: HCC 2998
SK-OV-3 = test system: SK-OV-3
HOP-92 = test system: HOP-92

Compound: N#CC(c1ccccc1)c1cccc2ccccc12 (stereo not drawn)
- GI50 (OVCAR-8): 27.4 µM (inactive)
- GI50 (NCI-H226): > 100 µM (inactive)
- GI50 (T47D): 38.5 µM (inactive)
- GI50 (UO-31): 28.2 µM (inactive)
- GI50 (SK-MEL-2): 25.6 µM (inactive)
- GI50 (NCI/ADR-RES): 39.8 µM (inactive)
- GI50 (LOX IMVI): 21.3 µM (inactive)
- GI50 (KM12): 21.8 µM (inactive)
- GI50 (A549): 20.1 µM (inactive)
- GI50 (SK-MEL-28): 69.7 µM (inactive)
- GI50 (UACC-62): 52.2 µM (inactive)
- GI50 (COLO 205): 40.8 µM (inactive)
- GI50 (SNB-19): 53.5 µM (inactive)
- GI50 (M14): 30.6 µM (inactive)
- GI50 (SF-268): 19.9 µM (inactive)
- GI50 (MDA-MB-231): 48.6 µM (inactive)
- GI50 (SF-539): 30.6 µM (inactive)
- GI50 (HCC 2998): 36.7 µM (inactive)

Compound: COc1cc([C@@H]2c3cc4c(cc3[C@@H](Nc3ccccc3C(=O)c3ccccc3)[C@H]3COC(=O)[C@H]23)OCO4)cc(OC)c1OC
- GI50 (OVCAR-8): 0.47 µM (active)
- GI50 (NCI-H226): 0.431 µM (active)
- GI50 (T47D): > 100 µM (inactive)
- GI50 (UO-31): 0.776 µM (active)
- GI50 (SK-MEL-2): > 100 µM (inactive)
- GI50 (NCI/ADR-RES): 0.479 µM (active)
- GI50 (LOX IMVI): 0.313 µM (active)
- GI50 (KM12): 0.3 µM (active)
- GI50 (A549): 0.753 µM (active)
- GI50 (SK-MEL-28): 0.472 µM (active)
- GI50 (UACC-62): 0.362 µM (active)
- GI50 (COLO 205): 0.472 µM (active)
- GI50 (SNB-19): 1.37 µM (inactive)
- GI50 (M14): 0.729 µM (active)
- GI50 (SF-268): 0.855 µM (active)
- GI50 (MDA-MB-231): 1.81 µM (inactive)
- GI50 (SF-539): 0.259 µM (active)
- GI50 (HCC 2998): 2.36 µM (inactive)

Compound: O=P(O)(O)c1ccc(-c2ccc(I)cc2)cc1
- GI50 (OVCAR-8): > 100 µM (inactive)
- GI50 (NCI-H226): > 100 µM (inactive)
- GI50 (T47D): > 100 µM (inactive)
- GI50 (UO-31): > 100 µM (inactive)
- GI50 (SK-MEL-2): > 100 µM (inactive)
- GI50 (NCI/ADR-RES): > 100 µM (inactive)
- GI50 (LOX IMVI): > 100 µM (inactive)
- GI50 (KM12): > 100 µM (inactive)
- GI50 (A549): > 100 µM (inactive)
- GI50 (SK-MEL-28): > 100 µM (inactive)
- GI50 (UACC-62): > 100 µM (inactive)
- GI50 (COLO 205): > 100 µM (inactive)
- GI50 (SNB-19): > 100 µM (inactive)
- GI50 (M14): > 100 µM (inactive)
- GI50 (SF-268): > 100 µM (inactive)
- GI50 (MDA-MB-231): > 100 µM (inactive)
- GI50 (SK-OV-3): > 100 µM (inactive)
- GI50 (SF-539): > 100 µM (inactive)
- GI50 (HCC 2998): > 100 µM (inactive)

Compound: Cc1ccc(/C=C2\CNC/C(=C\c3ccc(C)cc3)C2=O)cc1
- GI50 (OVCAR-8): 2.19 µM (inactive)
- GI50 (HOP-92): 4.54 µM (inactive)
- GI50 (NCI-H226): 1.84 µM (inactive)
- GI50 (T47D): 2.65 µM (inactive)
- GI50 (UO-31): 1.77 µM (inactive)
- GI50 (SK-MEL-2): 9.02 µM (inactive)
- GI50 (LOX IMVI): 0.615 µM (active)
- GI50 (KM12): 1.05 µM (active)
- GI50 (A549): 2.83 µM (inactive)
- GI50 (SK-MEL-28): 2.04 µM (inactive)
- GI50 (UACC-62): 2.04 µM (inactive)
- GI50 (COLO 205): 2.13 µM (inactive)
- GI50 (SNB-19): 1.65 µM (inactive)
- GI50 (M14): 2.26 µM (inactive)
- GI50 (SF-268): 2.53 µM (inactive)
- GI50 (MDA-MB-231): 2.91 µM (inactive)
- GI50 (SK-OV-3): 2.4 µM (inactive)
- GI50 (SF-539): 2.2 µM (inactive)
- GI50 (HCC 2998): 1.67 µM (inactive)

Compound: COc1cc(/C=C2\C[C@H]3[C@@H]4CCc5cc(OCCN6CCCC6)ccc5[C@H]4CC[C@]3(C)C2=O)cc(OC)c1OC
- GI50 (OVCAR-8): 1.63 µM (inactive)
- GI50 (NCI-H226): 1.97 µM (inactive)
- GI50 (T47D): 1.95 µM (inactive)
- GI50 (UO-31): 1.54 µM (inactive)
- GI50 (SK-MEL-2): 2.26 µM (inactive)
- GI50 (NCI/ADR-RES): 1.91 µM (inactive)
- GI50 (LOX IMVI): 1.69 µM (inactive)
- GI50 (KM12): 1.69 µM (inactive)
- GI50 (A549): 1.69 µM (inactive)
- GI50 (UACC-62): 2.52 µM (inactive)
- GI50 (COLO 205): 1.48 µM (inactive)
- GI50 (SNB-19): 2.3 µM (inactive)
- GI50 (M14): 1.67 µM (inactive)
- GI50 (MDA-MB-231): 1.79 µM (inactive)
- GI50 (SK-OV-3): 2.7 µM (inactive)
- GI50 (SF-539): 1.61 µM (inactive)
- GI50 (HCC 2998): 1.83 µM (inactive)

Compound: COc1ccc(C2CC3(c4ccccc4)ON=C(c4ccccc4)N3c3ccccc3S2)cc1 (stereo not drawn)
- GI50 (OVCAR-8): > 100 µM (inactive)
- GI50 (NCI-H226): > 100 µM (inactive)
- GI50 (T47D): > 100 µM (inactive)
- GI50 (UO-31): 51.2 µM (inactive)
- GI50 (NCI/ADR-RES): > 100 µM (inactive)
- GI50 (LOX IMVI): > 100 µM (inactive)
- GI50 (KM12): > 100 µM (inactive)
- GI50 (A549): > 100 µM (inactive)
- GI50 (SK-MEL-28): > 100 µM (inactive)
- GI50 (UACC-62): > 100 µM (inactive)
- GI50 (COLO 205): > 100 µM (inactive)
- GI50 (M14): > 100 µM (inactive)
- GI50 (SF-268): > 100 µM (inactive)
- GI50 (MDA-MB-231): > 100 µM (inactive)
- GI50 (SK-OV-3): > 100 µM (inactive)
- GI50 (SF-539): > 100 µM (inactive)
- GI50 (HCC 2998): > 100 µM (inactive)
